Patent publication US20050154046A1, “Methods of treating an inflammatory-related disease” (priority 2004, published 2005)
Entries after “also recorded” stand apart in the source; their conditions may differ.

Columns and labels:
mouse vaginal epithelium = experiment: Mitotic index in estrogen-stimulated vaginal epithelium of female mice; type: in vivo, Kunming mice; conditions: 1.0 mg/kg i.p. once a day, 3 days; percent of mitotic cells
Excerpt: (§1) Materials: Meisoindigo was synthesized, purified and its structure characterized by Natrogen Therapeutics, Inc. The purity of the compound was 98.5% as described in the Examples above. A suspension of Meisoindigo was freshly prepared in 0.5% sodium methylcellulose and given orally for the animal tests described below. Other chemicals used in the following experiments were purchased from Sigma.
(§2) Pathogen-free female Kunming mice at 12 weeks of age with body weights from 22 to 25 grams were housed 5 per cage, and given, ad libitum, fresh tap water and commercial rodent pellets. Animal rooms were controlled at 24±2° C. with a relative humidity of 60±5% and a 12 hour light/dark cycle (07:00-19:00 hr).
Anti-mitotic Effects of Meisoindigo on Mouse Vaginal Epithelium: Sixty Kunming female mice were randomly divided into 5 groups, 20 in one control group, and 10 in 4 drug-tested groups. All mice were given estrogen at a dose of 0.2 mg/animal for 3 days to allow vaginal epithelial cells to develop under the stimulation of estrogen hormone. Meisoindigo was freshly prepared as a suspension in 0.5% of sodium methylcellulose. The drug was given orally at doses of 50, 100, and 200 mg/kg, respectively, once a day for 3 days. Methotrexate (MTX) was used as a positive control at a dose of 1 mg/kg, i.p. once a day for the same period of time. […] The mitotic index (percent of mitotic cells) was calculated.

[1] = tested on: scale epithelial cells of mouse-tails; experiment: Mouse-tail model: granular layer formation in scale epithelial cells; type: in vivo, Kunming mice; conditions: 1.0 mg/kg i.p. once every 2 days, 13 days
Excerpt: as §1, §2
Effect of Meisoindigo on Epidermal Cell Differentiation in Mouse Tails: Sixty female Kunming mice were randomly divided into 5 groups, 20 in one control group, and 10 in 4 drug-tested groups. Meisoindigo was freshly prepared as a suspension in 0.5% of sodium methylcellulose. The drug was given orally at doses of 50, 100, and 200 mg/kg, respectively, once a day for 13 days. Methotrexate (MTX) was used as a positive control at a dose of 1 mg/kg, i.p. once every 2 days, for the same period of time. The same volume and vehicle for Meisoindigo suspension were used as a negative control. […] Slides were prepared for histological examination as originally described by Bosman et. al., (106). The slides were prepared by cutting the tails into longitudinal sections, and Hematoxylin and Eosin (H&E) stained. The slides were then examined with a light microscope to evaluate the degree of orthokeratosis (OK) and epidermal hyperplasia. The former was done by measuring the horizontal length of the fully developed granular layer stratum granulosum within an individual scale in relation to its total length. Drug activity was defined by the increase of the positive scale cells containing granular layer stratum granulosum between two folliculus pili.

cyclin D1 = experiment: Cyclin D1 levels in THP-1 cells; type: cell-based, human; conditions: 31.25 and 62.5 nM, 24 h; data not shown
IL-10 = IL-10 secretion (ELISA) in THP-1 cells; type: cell-based, human
Description: (§5) Viability of cells was examined under microscope after trypan blue staining.
Viability of cells was examined by trypan blue exception assay.

[2] = target: T1, glycogen synthase kinase-3β (GSK-3β) (Homo sapiens, UniProt P49841); experiment: Effect on glycogen synthase kinase-3β in cells; type: cell-based; conditions: as high as 50 μM; data not shown
T1 construct: endogenous in cells

IL-1β = IL-1β secretion (ELISA) in LPS-stimulated THP-1 cells; type: cell-based, human; conditions: as low as 31.25 nM (31.25 and 62.5 nM in FIG. 6), 24 h
Description: It was prepared in a solution of dimethyl sulfoxide (DMSO), and stored under −20° C. for the experiments in vitro. Human monocytic cell line, THP-1 (90), was purchased from ATCC. The cells were maintained according to the supplier's instructions. Approximately 1×10^5 cells/ml were cultured at 37° C., 5% CO2 for 24 hours in Modified RPMI-1640 Medium (Invitrogen) supplemented with 10% FBS.
Viability of cells was examined under microscope after trypan blue staining. Protein levels of IL-1β secreted into the culture media by the cells were then measured by ELISA and calculated from its standard curve using an assay Kit from R&D Systems according to instructions provided by the supplier.
Statistical Analysis: All data were expressed as a mean±SD. Statistical significance of any difference between the control (LPS) and experimental groups was determined by the Student's t-test. P values between the 2 groups must be at least smaller than 0.05 to be considered statistically significant.
(§6) 1) Effects of Meisoindigo and NATURA on the expression/secretion of cytokines IL-1β, IL-6, IL-10: The human monocytic THP-1 cells grown exponentially were stimulated with or without 1 μM of lipopolysaccharide (LPS, Sigma), and exposed for 24 hours to different concentrations of Meisoindigo and NATURA (from 31.25 nM and 62.5 nM), respectively. Viability of cells was examined by trypan blue exception assay.

CDK2 = target: T2, CDK2 (Homo sapiens, UniProt P24941); experiment: Cyclin dependent kinase activity in THP-1 cells (immunoprecipitation, histone H1 phosphorylation); type: cell-based; conditions: 24 h
T2 construct: endogenous in cells; host or cells: THP-1
Description: (§3) 2) Effects of Meisoindigo and/or NATURA on activity of cyclin dependent kinases (CDK) in THP-1 cells (99): THP-1 cells grown exponentially were exposed to […] of Meisoindigo or NATURA for 24 hr, respectively.
(§4) The cells were harvested, washed, and total proteins extracted as described previously (100). One hundred μg of the proteins were immuno-precipitated using antibodies against either cdk2, cdk4/6 or cyclin D1 overnight at 4° C. in the presence of a cocktail of protease inhibitors. The immuno-precipitates were washed 4 times with protein extraction buffer and once with kinase assay buffer, and reacted with […] histone H1 in the presence of [γ-^32P]-ATP (10 μCi/10 μM). The phosphorylated histone H1 (represent cdk activity) was measured by scintillation counting or by SDS-polyacrylaimde gel electrophoresis (101, 102).

IL-6 = IL-6 secretion (ELISA) in LPS-stimulated THP-1 cells; type: cell-based, human; conditions: as low as 31.25 nM (31.25 and 62.5 nM in FIG. 6), 24 h
Description: as §5
Standard IL-6 protein was used to establish a standard curve for the calculation of IL-6 in the medium secreted by the cells (LPS-stimulated or non-stimulated cells in the presence or absence of Meisoindigo).
as §6

cdk4/6 = experiment: Cyclin dependent kinase activity in THP-1 cells (immunoprecipitation, histone H1 phosphorylation); type: cell-based, human; conditions: 31.25 and 62.5 nM, 24 h
Description: as §3, §4

T1 sequence (P49841 whole entry): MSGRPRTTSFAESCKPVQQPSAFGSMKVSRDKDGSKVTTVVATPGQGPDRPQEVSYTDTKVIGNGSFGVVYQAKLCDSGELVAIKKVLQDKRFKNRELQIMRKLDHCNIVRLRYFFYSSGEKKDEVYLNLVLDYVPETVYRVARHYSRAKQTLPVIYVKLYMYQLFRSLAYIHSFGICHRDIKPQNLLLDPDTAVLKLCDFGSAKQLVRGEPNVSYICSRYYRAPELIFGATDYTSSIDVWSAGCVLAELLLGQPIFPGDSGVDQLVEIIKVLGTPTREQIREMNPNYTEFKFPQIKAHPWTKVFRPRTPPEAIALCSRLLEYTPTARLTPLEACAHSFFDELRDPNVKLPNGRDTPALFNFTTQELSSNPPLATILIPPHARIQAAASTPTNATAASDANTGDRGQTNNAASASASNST

Structure (SMILES)	Mitotic Index (X ± SD) (mouse vaginal epithelium)	Granulous Scales (X ± SD) [1]	effect on levels of cyclin D1 (cyclin D1)	effect on IL-10 production (IL-10; 31.25 and 62.5 nM, 24 h)	elevation of LPS-suppressed IL-10 (IL-10; similar concentrations (as low as 31.25 nM), FIG. 6A)	activity on GSK-3β [2]	effect on IL-1β production (IL-1β)	partial inhibition of CDK activity (CDK2; 1.5 μM, FIG. 6B)	inhibition of CDK2 activity (CDK2; 31.25 and 62.50 nM)	effect on IL-6 production/secretion (IL-6)	inhibition of cyclin dependent kinase 4 and 6 activity (cdk4/6)
CN(Cc1cnc2nc(N)nc(N)c2n1)c1ccc(C(=O)N[C@@H](CCC(=O)O)C(=O)O)cc1 [MTX, Methotrexate, reference compound]	14.76±4.29	17.22 ± 4.92									
CC(=O)OC1COC(N2C(=O)/C(=C3/C(=O)Nc4ccccc43)c3ccccc32)C(OC(C)=O)C1OC(C)=O (centres unmarked) [NATURA]			failed to inhibit	promoted production	~2 fold	no activity was observed	significantly inhibit	23%	failed to inhibit; also recorded: no inhibitory effect	significantly inhibit	failed to inhibit
